For 22 compounds, mrna remaining and EC50 results are on record in US20260315464A1, “COMPOSITIONS, METHODS, AND SYSTEMS FOR MODULATING SPLICING OF MSH3” (REVIR THERAPEUTICS, INC., priority 2023, published 2026).

The structures appear in SMILES notation.

The test system of the test is MSH3. Kind of test: QPCR assay for levels of MSH3 upon compound treatment in HEK293T or AD293 cells (fold-change of MSH3 transcript, EC50 of MSH3 downregulation; total MSH3 exons 13/14, exons 20/21; Table 8). The conditions noted are these: for mrna remaining at 1 µM / mrna remaining at 10 µM: Homo sapiens, fold-change of the MSH3 transcript, normalized to GAPDH; for mrna remaining at 1 µM: 1 μM compound; for mrna remaining at 10 µM: 10 μM compound; for EC50: EC50 of MSH3 downregulation, XtalPi. Type of test: cell-based. In outline: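 HEK293T or AD293 cells were treated at 1 μM and […]; RNA-to-cDNA qPCR used TaqMan assays for total MSH3 (exons 13/14, exons 20/21) and poison-exon junctions exon 13/PE14A and exon 20/PE21A. Transcript levels were normalized to GAPDH.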

A word on the EC50: it is the midpoint of the concentration-response curve. Read a high EC50 as a less potent agent.

Regarding `Cn1cc(-c2cc3c(cn2)CN(c2ccc(O[C@H]4C[C@]5(C)CC[C@](C)(C4)N5)nn2)C3=O)c(F)n1` [Compound 107, 2-(6-(((1R,3s,5S)-1,5-dimethyl-8-azabicyclo[3.2.1]octan-3-yl)oxy)pyridazin-3-yl)-6-(3-fluoro-1-methyl-1H-pyrazol-4-yl)-2,3-dihydro-1H-pyrrolo[3,4-c]pyridin-1-one], the mrna remaining at 1 µM is 97% and the mrna remaining at 10 µM is 75%.
In the case of `Cn1cc(-c2cc3c(cn2)CN(c2ccc(O[C@H]4C[C@]5(C)CC[C@](C)(C4)N5)nn2)C3=O)c(Cl)n1` [Compound 458, 6-(3-chloro-1-methyl-1H-pyrazol-4-yl)-2-(6-(((1R,3s,5S)-1,5-dimethyl-8-azabicyclo[3.2.1]octan-3-yl)oxy)pyridazin-3-yl)-2,3-dihydro-1H-pyrrolo[3,4-c]pyridin-1-one], the EC50 stood at 820 nM, the mrna remaining at 1 µM amounted to 40% and the mrna remaining at 10 µM came out at 11%.
For `COc1cc(-c2nn(C)nc2C)cc2c1CN(c1ccc(N(C)C3CC(C)(C)NC(C)(C)C3)nn1)C2=O` [Compound 683, 6-(2,5-dimethyl-2H-1,2,3-triazol-4-yl)-4-methoxy-2-(6-(methyl(2,2,6,6-tetramethylpiperidin-4-yl)amino)pyridazin-3-yl)isoindolin-1-one], the mrna remaining at 1 µM came to 138% and the mrna remaining at 10 µM came out at 26%.
For `CC1CCN(c2ccc(N3Cc4c(F)cc(-c5nn(C)nc5Cl)cc4C3=O)nn2)CCN1` (centres unmarked) [Compound 668, 6-(5-chloro-2-methyl-2H-1,2,3-triazol-4-yl)-4-fluoro-2-(6-(5-methyl-1,4-diazepan-1-yl)pyridazin-3-yl)isoindolin-1-one], in that order: 103% and 13%.
In the same order, the values of `Cn1cc(-c2cc3c(cn2)CN(c2ccc(O[C@H]4C[C@]5(C)CC[C@](C)(C4)N5)nn2)C3=O)c(C(F)(F)F)n1` [Compound 74, 2-(6-(((1R,3s,5S)-1,5-dimethyl-8-azabicyclo[3.2.1]octan-3-yl)oxy)pyridazin-3-yl)-6-(1-methyl-3-(trifluoromethyl)-1H-pyrazol-4-yl)-2,3-dihydro-1H-pyrrolo[3,4-c]pyridin-1-one] are 96% and 33%.
With `Cc1cn(-c2cc(C#N)c3c(c2)C(=O)N(c2ccc(O[C@H]4C[C@]5(C)CC[C@](C)(C4)N5)nn2)C3)nn1` [Compound 591, 2-(6-(((1R,3s,5S)-1,5-dimethyl-8-azabicyclo[3.2.1]octan-3-yl)oxy)pyridazin-3-yl)-6-(4-methyl-1H-1,2,3-triazol-1-yl)-1-oxoisoindoline-4-carbonitrile], the EC50 is 634 nM, the mrna remaining at 1 µM is 109% and the mrna remaining at 10 µM was found to be 91%.
As for `Cc1nn(C)cc1-c1cnc2c(c1)C(=O)N(c1ccc(NC3CC(C)(C)NC(C)(C)C3)nn1)C2` [Compound 207, 3-(1,3-dimethyl-1H-pyrazol-4-yl)-6-(6-((2,2,6,6-tetramethylpiperidin-4-yl)amino)pyridazin-3-yl)-6,7-dihydro-5H-pyrrolo[3,4-b]pyridin-5-one], the EC50 is approximately 3050 nM, the mrna remaining at 1 µM was 108% and the mrna remaining at 10 µM worked out at 18%.
As to `Cn1ncc(-c2cc(F)c3c(c2)C(=O)N(c2ccc(O[C@H]4C[C@]5(C)CC[C@](C)(C4)N5)nn2)C3)n1` [Compound 631, 2-(6-(((1R,3s,5S)-1,5-dimethyl-8-azabicyclo[3.2.1]octan-3-yl)oxy)pyridazin-3-yl)-4-fluoro-6-(2-methyl-2H-1,2,3-triazol-4-yl)isoindolin-1-one], the mrna remaining at 1 µM stood at 86% and the mrna remaining at 10 µM stood at 69%.
For `Cc1nn(C)nc1-c1cc(F)c2c(c1)C(=O)N(c1ccc(N3CCC(C)(C)NC(C)(C)C3)nn1)C2` [Compound 657, 6-(2,5-dimethyl-2H-1,2,3-triazol-4-yl)-4-fluoro-2-(6-(3,3,5,5-tetramethyl-1,4-diazepan-1-yl)pyridazin-3-yl)isoindolin-1-one], in that order: 75% and 26%.
With `Cc1nn(C)nc1-c1cnc2c(c1)C(=O)N(c1ccc(N3C[C@H]4CC[C@@H](C3)N4)nn1)C2` [Compound 568, 6-(6-((1R,5S)-3,8-diazabicyclo[3.2.1]octan-3-yl)pyridazin-3-yl)-3-(2,5-dimethyl-2H-1,2,3-triazol-4-yl)-6,7-dihydro-5H-pyrrolo[3,4-b]pyridin-5-one], the mrna remaining at 1 µM turned out to be 77% and the mrna remaining at 10 µM turned out to be 46%.
`CN(c1ccc(N2Cc3ncc(-c4nn(C)nc4Cl)nc3C2=O)nn1)C1CC(C)(C)NC2(CCC2)C1` (centres unmarked) [Compound 626, 3-(5-chloro-2-methyl-2H-1,2,3-triazol-4-yl)-6-(6-((6,6-dimethyl-5-azaspiro[3.5]nonan-8-yl)(methyl)amino)pyridazin-3-yl)-6,7-dihydro-5H-pyrrolo[3,4-b]pyrazin-5-one]: the mrna remaining at 1 µM was 98% and the mrna remaining at 10 µM was determined as 28%.
As for `[2H]C([2H])([2H])n1cc(-c2cnc3c(c2)C(=O)N(c2ccc(N(C)C4CC(C)(C)NC(C)(C)C4)nn2)C3)cn1` [Compound 161, 6-(6-(methyl(2,2,6,6-tetramethylpiperidin-4-yl)amino)pyridazin-3-yl)-3-(1-(methyl-d3)-1H-pyrazol-4-yl)-6,7-dihydro-5H-pyrrolo[3,4-b]pyridin-5-one], the mrna remaining at 1 µM was 96% and the mrna remaining at 10 µM was determined as 70%.
Compound `Cc1nn(C)cc1-c1cnc2c(n1)C(=O)N(c1ccc(N(C)[C@H]3C[C@]4(C)CC[C@](C)(C3)N4)nn1)C2` [Compound 496, 3-(1,3-dimethyl-1H-pyrazol-4-yl)-6-(6-(((1R,3s,5S)-1,5-dimethyl-8-azabicyclo[3.2.1]octan-3-yl)(methyl)amino)pyridazin-3-yl)-6,7-dihydro-5H-pyrrolo[3,4-b]pyrazin-5-one] registered an EC50 of 690 nM.
In the case of `Cn1nc(Cl)c(-c2cnc3c(c2)C(=O)N(c2ccc(OC4CCC(C)(C)NC(C)(C)C4)nn2)C3)n1` (centres unmarked) [Compound 488, 3-(5-chloro-2-methyl-2H-1,2,3-triazol-4-yl)-6-(6-((2,2,7,7-tetramethylazepan-4-yl)oxy)pyridazin-3-yl)-6,7-dihydro-5H-pyrrolo[3,4-b]pyridin-5-one], the mrna remaining at 1 µM was 69% and the mrna remaining at 10 µM was 19%.
As to `Cc1nn(C)cc1-c1cnc2c(c1)C(=O)N(c1ccc(OC3CC(C)(C)NC4(CCC4)C3)nn1)C2` (centres unmarked) [Compound 597, 3-(1,3-dimethyl-1H-pyrazol-4-yl)-6-(6-((6,6-dimethyl-5-azaspiro[3.5]nonan-8-yl)oxy)pyridazin-3-yl)-6,7-dihydro-5H-pyrrolo[3,4-b]pyridin-5-one], the mrna remaining at 1 µM was 98% and the mrna remaining at 10 µM turned out to be 29%.
On to `Cc1nn(C)nc1-c1cc(F)c2c(c1)C(=O)N(c1ccc(N3CCC4(CCNC4)C3)nn1)C2` (centres unmarked) [Compound 646, 2-(6-(2,7-diazaspiro[4.4]nonan-2-yl)pyridazin-3-yl)-6-(2,5-dimethyl-2H-1,2,3-triazol-4-yl)-4-fluoroisoindolin-1-one], for which the mrna remaining at 1 µM was 115% and the mrna remaining at 10 µM was 76%.
With `Cn1ncc(-c2cnc3c(c2)C(=O)N(c2ccc(S[C@H]4C[C@]5(C)CC[C@](C)(C4)N5)nn2)C3)n1` [Compound 606, 6-(6-(((1R,3s,5S)-1,5-dimethyl-8-azabicyclo[3.2.1]octan-3-yl)thio)pyridazin-3-yl)-3-(2-methyl-2H-1,2,3-triazol-4-yl)-6,7-dihydro-5H-pyrrolo[3,4-b]pyridin-5-one], the mrna remaining at 1 µM amounted to 57% and the mrna remaining at 10 µM amounted to 25%.
In the case of `CN(c1ccc(N2Cc3ncc(-c4cnn(C)n4)cc3C2=O)nn1)[C@H]1C[C@]2(C)CC[C@](C)(C1)N2` [Compound 188, 6-(6-(((1R,3s,5S)-1,5-dimethyl-8-azabicyclo[3.2.1]octan-3-yl)(methyl)amino)pyridazin-3-yl)-3-(2-methyl-2H-1,2,3-triazol-4-yl)-6,7-dihydro-5H-pyrrolo[3,4-b]pyridin-5-one], the EC50 worked out at 960 nM, the mrna remaining at 1 µM turned out to be 18% and the mrna remaining at 10 µM was 5%.
As to `Cc1nn(C)cc1-c1ccc2c(c1)C(=O)N(c1ccc(N(C)[C@H]3C[C@]4(C)CC[C@](C)(C3)N4)nn1)C2` [Compound 423, 6-(1,3-dimethyl-1H-pyrazol-4-yl)-2-(6-(((1R,3s,5S)-1,5-dimethyl-8-azabicyclo[3.2.1]octan-3-yl)(methyl)amino)pyridazin-3-yl)isoindolin-1-one], the mrna remaining at 1 µM is 37% and the mrna remaining at 10 µM turned out to be 10%.
In the same order, the values of `Cc1nn(C)cc1-c1cc2c(cn1)CN(c1cnc(N(C)[C@H]3C[C@]4(C)CC[C@](C)(C3)N4)nn1)C2=O` [Compound 55, 6-(1,3-dimethyl-1H-pyrazol-4-yl)-2-(3-(((1R,3s,5S)-1,5-dimethyl-8-azabicyclo[3.2.1]octan-3-yl)(methyl)amino)-1,2,4-triazin-6-yl)-2,3-dihydro-1H-pyrrolo[3,4-c]pyridin-1-one] are 56% and 20%.
Turning to `Cc1nc(C)c(-c2cnc3c(c2)C(=O)N(c2ccc(O[C@H]4C[C@]5(C)CC[C@](C)(C4)N5)nn2)C3)s1` [Compound 174, 6-(6-(((1R,3s,5S)-1,5-dimethyl-8-azabicyclo[3.2.1]octan-3-yl)oxy)pyridazin-3-yl)-3-(2,4-dimethylthiazol-5-yl)-6,7-dihydro-5H-pyrrolo[3,4-b]pyridin-5-one], the mrna remaining at 1 µM amounted to 103% and the mrna remaining at 10 µM came out at 62%.
Consider `CN(C)C1CN(c2ccc(N3Cc4c(F)cc(-c5nn(C)nc5Cl)cc4C3=O)nn2)C1` [Compound 647, 6-(5-chloro-2-methyl-2H-1,2,3-triazol-4-yl)-2-(6-(3-(dimethylamino)azetidin-1-yl)pyridazin-3-yl)-4-fluoroisoindolin-1-one], for which the mrna remaining at 1 µM worked out at 119% and the mrna remaining at 10 µM worked out at 86%.
